# Results: US8354372B2 (priority 2006, dated 2013)
# pIC50: −log10 of the molar value.
# Columns and labels:
# [1] = human, plasma
# [2] = target: endoproteinase Glu-C (Endo Glu-C) (Staphylococcus aureus, UniProt P0C1U8); details: isolated enzyme glu c, pH 8
# [3] = system: CCI-rats; details: rat, in vivo, po
# [4] = system: bovine adrenal chromaffin cells; type: cell-based
# [5] = target: α4β2 nAChR (Homo sapiens, UniProt P17787+P43681); type: cell-based
# [6] = target: α4β4 nAChR (Homo sapiens, UniProt P30926+P43681); type: cell-based
# [7] = system: α9, α10 nAchR; details: cited from earlier work
# [8] = system: α3-containing nAChRs; type: cell-based
# [9] = target: homopentameric neuronal nAChR, α7 (Homo sapiens, UniProt P36544); type: cell-based; details: 10 µM
# [10] = system: streptozotocin-induced diabetic rat; details: in vivo; cited from earlier work
# [11] = in vivo; cited from earlier work
# [12] = target: α3α6β2 nAChR (Homo sapiens, UniProt P17787+P32297+Q15825); type: cell-based; details: 30 µM
# [13] = target: α3α5β4 nAChR (Homo sapiens, UniProt P30926+P32297); type: cell-based
# [14] = system: rat models of human neuropathic pain; details: in vivo; cited from earlier work
# [15] = system: animal model of inflammatory pain; details: in vivo; cited from earlier work
# [16] = system: unmyelinated C-fiber axons in isolated segments of peripheral human nerves; details: cited from earlier work
# [17] = target: α3, β4 subtype of the nAchR (Rattus norvegicus, UniProt P04757+P12392); details: cited from earlier work
# [18] = target: nAChR combination α3α5β4 expressed in Xenopus oocytes; assay: cell-based or functional assay
# Sequence of α3α5β4 nAChR (P30926 whole entry, looked up): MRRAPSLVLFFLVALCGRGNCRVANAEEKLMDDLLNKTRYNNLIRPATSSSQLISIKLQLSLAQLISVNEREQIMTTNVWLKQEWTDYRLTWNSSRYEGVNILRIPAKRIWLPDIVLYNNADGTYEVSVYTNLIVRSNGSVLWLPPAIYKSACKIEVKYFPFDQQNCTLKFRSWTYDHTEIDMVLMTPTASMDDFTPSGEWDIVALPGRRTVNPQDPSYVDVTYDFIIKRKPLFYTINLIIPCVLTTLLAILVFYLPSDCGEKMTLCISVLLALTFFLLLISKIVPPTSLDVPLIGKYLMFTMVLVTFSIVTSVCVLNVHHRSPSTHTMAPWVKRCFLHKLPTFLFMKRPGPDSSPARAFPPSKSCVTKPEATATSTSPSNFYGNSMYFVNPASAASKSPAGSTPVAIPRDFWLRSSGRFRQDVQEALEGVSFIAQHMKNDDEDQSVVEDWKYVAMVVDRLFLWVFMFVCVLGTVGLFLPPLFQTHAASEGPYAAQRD
# Sequence of α3α5β4 nAChR (P32297 whole entry, looked up): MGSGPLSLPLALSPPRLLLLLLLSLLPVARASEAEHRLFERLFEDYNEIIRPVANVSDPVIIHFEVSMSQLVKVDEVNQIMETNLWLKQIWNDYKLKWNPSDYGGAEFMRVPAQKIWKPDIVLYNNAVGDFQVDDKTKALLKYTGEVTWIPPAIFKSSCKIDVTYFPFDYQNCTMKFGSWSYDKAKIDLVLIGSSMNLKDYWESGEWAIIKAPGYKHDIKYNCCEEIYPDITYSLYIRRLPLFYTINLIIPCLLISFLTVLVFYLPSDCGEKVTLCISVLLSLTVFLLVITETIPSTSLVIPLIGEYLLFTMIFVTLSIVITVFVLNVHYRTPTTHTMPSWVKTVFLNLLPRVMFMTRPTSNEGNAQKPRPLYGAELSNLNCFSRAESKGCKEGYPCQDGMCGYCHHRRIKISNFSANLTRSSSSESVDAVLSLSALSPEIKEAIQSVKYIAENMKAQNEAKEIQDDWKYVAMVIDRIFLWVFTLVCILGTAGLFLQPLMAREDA
# Sequence of homopentameric neuronal nAChR, α7 (P36544 23-502 limits assumed): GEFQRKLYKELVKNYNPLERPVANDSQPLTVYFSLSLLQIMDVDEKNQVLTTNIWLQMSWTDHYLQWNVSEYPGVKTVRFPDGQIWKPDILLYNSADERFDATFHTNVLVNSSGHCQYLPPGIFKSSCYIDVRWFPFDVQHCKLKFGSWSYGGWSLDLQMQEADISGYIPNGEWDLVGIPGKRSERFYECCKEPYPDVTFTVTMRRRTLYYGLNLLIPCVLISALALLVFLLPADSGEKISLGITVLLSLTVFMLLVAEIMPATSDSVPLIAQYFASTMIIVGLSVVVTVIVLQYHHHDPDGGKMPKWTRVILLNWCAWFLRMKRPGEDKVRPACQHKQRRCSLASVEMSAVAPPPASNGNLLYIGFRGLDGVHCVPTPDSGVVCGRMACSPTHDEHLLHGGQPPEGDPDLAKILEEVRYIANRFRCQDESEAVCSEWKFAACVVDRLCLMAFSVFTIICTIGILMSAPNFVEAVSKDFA
# Sequence of endoproteinase Glu-C (Endo Glu-C) (P0C1U8 69-336 limits assumed): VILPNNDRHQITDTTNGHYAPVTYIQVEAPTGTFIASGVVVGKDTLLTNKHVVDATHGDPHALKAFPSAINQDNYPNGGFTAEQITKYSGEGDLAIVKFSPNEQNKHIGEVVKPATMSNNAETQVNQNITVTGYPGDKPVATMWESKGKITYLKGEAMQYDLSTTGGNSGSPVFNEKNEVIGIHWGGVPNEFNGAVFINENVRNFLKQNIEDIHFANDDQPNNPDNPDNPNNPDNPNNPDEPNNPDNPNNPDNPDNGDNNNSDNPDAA
# Sequence of α3α6β2 nAChR (P32297 32-505 limits assumed): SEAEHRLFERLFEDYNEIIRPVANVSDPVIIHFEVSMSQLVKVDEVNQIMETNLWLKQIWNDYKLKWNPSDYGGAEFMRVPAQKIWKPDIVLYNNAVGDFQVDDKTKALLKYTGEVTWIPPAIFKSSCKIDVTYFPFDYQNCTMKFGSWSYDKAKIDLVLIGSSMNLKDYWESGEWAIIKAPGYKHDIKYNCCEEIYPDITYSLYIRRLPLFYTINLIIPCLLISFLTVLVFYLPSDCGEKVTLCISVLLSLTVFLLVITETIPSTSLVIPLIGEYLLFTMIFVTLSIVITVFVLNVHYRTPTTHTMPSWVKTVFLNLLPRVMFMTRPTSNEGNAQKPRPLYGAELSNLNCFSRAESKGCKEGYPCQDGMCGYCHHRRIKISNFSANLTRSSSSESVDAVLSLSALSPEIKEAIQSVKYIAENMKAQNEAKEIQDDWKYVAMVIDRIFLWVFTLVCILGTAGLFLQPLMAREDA
# Sequence of α3α6β2 nAChR (Q15825 26-494 limits assumed): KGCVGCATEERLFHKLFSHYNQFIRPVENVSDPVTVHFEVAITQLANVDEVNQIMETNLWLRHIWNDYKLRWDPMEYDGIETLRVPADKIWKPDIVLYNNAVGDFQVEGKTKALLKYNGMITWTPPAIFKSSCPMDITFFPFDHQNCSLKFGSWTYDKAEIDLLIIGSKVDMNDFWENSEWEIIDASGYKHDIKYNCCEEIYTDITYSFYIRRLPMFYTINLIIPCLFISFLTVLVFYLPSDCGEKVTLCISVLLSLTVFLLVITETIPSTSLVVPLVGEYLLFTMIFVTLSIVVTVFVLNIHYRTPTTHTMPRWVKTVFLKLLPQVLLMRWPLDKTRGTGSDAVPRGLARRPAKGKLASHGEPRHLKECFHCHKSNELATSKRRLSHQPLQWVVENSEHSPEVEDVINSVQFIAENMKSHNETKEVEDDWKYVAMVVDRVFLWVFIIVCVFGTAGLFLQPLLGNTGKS
# Sequence of α3α6β2 nAChR (P17787 26-502 limits assumed): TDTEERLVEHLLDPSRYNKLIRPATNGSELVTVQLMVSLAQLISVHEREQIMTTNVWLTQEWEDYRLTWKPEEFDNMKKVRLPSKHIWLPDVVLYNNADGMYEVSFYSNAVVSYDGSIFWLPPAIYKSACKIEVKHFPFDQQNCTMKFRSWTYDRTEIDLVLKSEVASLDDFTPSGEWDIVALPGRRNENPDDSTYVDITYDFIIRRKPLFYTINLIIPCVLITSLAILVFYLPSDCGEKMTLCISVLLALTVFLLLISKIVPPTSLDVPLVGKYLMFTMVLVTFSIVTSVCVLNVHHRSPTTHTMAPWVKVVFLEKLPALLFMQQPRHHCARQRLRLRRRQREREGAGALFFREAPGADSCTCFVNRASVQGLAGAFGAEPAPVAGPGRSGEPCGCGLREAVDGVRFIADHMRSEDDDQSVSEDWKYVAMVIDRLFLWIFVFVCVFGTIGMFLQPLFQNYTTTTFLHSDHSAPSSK
# Sequence of α4β2 nAChR (P43681 29-627 limits assumed): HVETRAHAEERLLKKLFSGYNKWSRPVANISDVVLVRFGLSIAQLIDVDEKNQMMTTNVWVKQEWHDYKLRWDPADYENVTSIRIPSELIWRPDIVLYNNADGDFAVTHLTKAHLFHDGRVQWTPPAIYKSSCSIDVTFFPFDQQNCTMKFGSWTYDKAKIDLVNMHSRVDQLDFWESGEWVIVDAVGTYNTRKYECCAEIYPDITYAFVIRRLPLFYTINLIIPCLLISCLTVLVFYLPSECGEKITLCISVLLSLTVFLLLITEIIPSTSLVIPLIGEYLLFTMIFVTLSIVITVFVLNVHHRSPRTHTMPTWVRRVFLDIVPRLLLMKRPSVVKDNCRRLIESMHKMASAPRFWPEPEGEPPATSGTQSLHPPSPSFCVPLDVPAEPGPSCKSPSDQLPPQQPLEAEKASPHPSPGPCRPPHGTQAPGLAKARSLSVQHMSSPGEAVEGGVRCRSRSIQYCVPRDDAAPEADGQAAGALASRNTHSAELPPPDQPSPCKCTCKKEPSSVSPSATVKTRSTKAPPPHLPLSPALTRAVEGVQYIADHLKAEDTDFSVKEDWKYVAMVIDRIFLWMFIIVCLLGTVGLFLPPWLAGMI
# Sequence of α4β2 nAChR (P17787 26-502 limits assumed): as the sequence (P17787 26-502 limits assumed) above
# Sequence of α4β4 nAChR (P43681 29-627 limits assumed): as the sequence (P43681 29-627 limits assumed) above
# Sequence of α4β4 nAChR (P30926 22-498 limits assumed): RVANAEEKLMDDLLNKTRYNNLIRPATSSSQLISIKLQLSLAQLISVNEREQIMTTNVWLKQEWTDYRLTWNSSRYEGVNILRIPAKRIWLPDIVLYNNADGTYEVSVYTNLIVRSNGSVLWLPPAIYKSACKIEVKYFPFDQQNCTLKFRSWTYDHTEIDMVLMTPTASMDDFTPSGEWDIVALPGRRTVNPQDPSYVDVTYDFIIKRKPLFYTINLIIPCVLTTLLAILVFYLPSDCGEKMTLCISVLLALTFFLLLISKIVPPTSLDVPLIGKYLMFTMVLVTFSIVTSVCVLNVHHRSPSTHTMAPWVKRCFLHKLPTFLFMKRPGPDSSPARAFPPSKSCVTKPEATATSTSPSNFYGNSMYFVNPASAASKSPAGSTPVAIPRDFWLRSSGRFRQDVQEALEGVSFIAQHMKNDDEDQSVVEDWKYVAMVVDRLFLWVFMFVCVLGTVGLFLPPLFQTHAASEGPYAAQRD
compound,measurement,setting,value
CC(C)C[C@@H]1NC(=O)[C@H](CC(N)=O)NC(=O)[C@H](CO)NC(=O)[C@H](Cc2cnc[nH]2)NC(=O)[C@H](CCC(=O)O)NC(=O)[C@H](CC(C)C)NC(=O)[C@H](Cc2cnc[nH]2)NC(=O)[C@@H]2CSSC[C@H](NC(=O)CN)C(=O)N[C@@H](CSSC[C@@H](C(N)=O)NC1=O)C(=O)N[C@@H](CO)C(=O)N[C@@H](CC(N)=O)C(=O)N1CCC[C@H]1C(=O)N[C@@H](C(C)C)C(=O)N2 [MII],half-life,[1],~16 h
same,half-life,[2],~10 h
CC[C@H](C)[C@@H]1NC(=O)[C@H](CCC(=O)O)NC(=O)[C@@H]2CCCN2C(=O)[C@H](Cc2c[nH]cn2)NC(=O)[C@H](CC(=O)O)NC(=O)[C@H](Cc2ccc(O)cc2)NC(=O)[C@H](CC(N)=O)NC(=O)[C@@H]2CSSC[C@@H]3NC(=O)CNC(=O)CNC(=O)CNC(=O)[C@H](C)NC(=O)[C@H](C)NC(=O)CNC(=O)CNC(=O)[C@H](CSSC[C@H](NC3=O)C(=O)N[C@@H](CO)C(=O)N[C@@H](CC(=O)O)C(=O)N3CCC[C@H]3C(=O)N[C@@H](CCCNC(=N)N)C(=O)N2)NC1=O [cVc1.1-6],ED50,[3],~1 mg/kg
same,"inhibition of catecholamine release, activity relative to linear Vc1.1",[4],"identical, within experimental error"
Vc1.1,inhibition of ACh-evoked currents,[5],failed to inhibit
same,inhibition of ACh-evoked currents,[6],failed to inhibit
same,"affinity for α9, α10 nAchR relative to α3, β4 nAchR",[7],one hundred fold higher
same,pIC50,"[7]; read-out: affinity for the α9, α10 nAchR",7.64
same,antagonism of ACh-evoked currents,[8],did not antagonise ACh-evoked currents
same,detectable response alone (>50 nA),[8],nor elicit a detectable response alone
same,inhibition of the ACh-evoked current,[9],14±2%
same,time after dosing at which anti allodynic effect was observed,[10],≤ 1 h
same,analgesic activity relative to Ziconotide,[11],more active than Ziconotide
same,inhibition of ACh-induced current amplitude,[12],~50%
same,lower potency to inhibit α3α5β4,[13],> 5 fold
same,effect on neuropathic pain in three rat models,[14],alleviate neuropathic pain
same,functional recovery of injured neurons,[14],accelerate the functional recovery of injured neurons
same,efficacy in an animal model of inflammatory pain,[15],effective
same,effect on nicotine-induced increase in axonal excitability,[16],antagonize
same,pIC50,[17],5.38
α-conotoxin Vc1.1 (peptide),potency to inhibit ACh-evoked current (fold lower potency),[18],> 5
